A short description of the experiment: Evaluation 3: 20-μm pattern line width of black photosensitive composition. The settings on record: black composition (carbon black, cardo resin), initiator 0.4 mmol. In short, it runs like this: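 Composition spin-coated on glass to 1.0 μm dry thickness, dried 90 °C for 10 min, exposed at 10–80 mJ/cm^2 via high-pressure mercury lamp through 20 μm negative mask, developed in 0.1 wt % TMAH, rinsed. Line width of remaining cured film measured; larger width means higher sensitivity.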

For `CCCC1(CCC)c2cc(C(=O)c3ccccc3C)ccc2-c2ccc(/C(C)=N/OC(C)=O)cc21` [Compound 4], the “20-μm pattern line width” value is reported as 19.4 (10 mJ/cm^2); 20.0 (20 mJ/cm^2); 21.3 (40 mJ/cm^2); 22.1 (60 mJ/cm^2); 22.4 (80 mJ/cm^2).

(Values after patent US9684238B2, “Fluorene-type compound, photopolymerization initiator comprising said fluorene-type compound, and photosensitive composition containing said photopolymerization initiator” (TOKYO OHKA KOGYO CO., LTD., priority 2012, dated 2017).)
